Laboratory results as given in patent publication US10875861B1, “Therapeutic compounds” (Rutgers, The State University of New Jersey, priority 2017, dated 2020).

Tested on: glioblastoma cancer cell line
Assay: MTT viability assay with glioblastoma cancer cell line (Test A)
Format: cell-based, human
Conditions: Homo sapiens, 72 hours
Excerpt: To generate primary patient-derived GBM models for testing small molecule inhibitors, fresh primary tissues were received from patients undergoing surgical resection of WHO grade IV gliomas at Robert Wood Johnson University Hospital (RWJUH) under an approved IRB protocol. De-identified primary human GBM samples were delivered to the laboratory. Cells were obtained through mechanical dissociation of the tumor tissue using a blade and plated in DMEM/F12 medium (Gibco) in the presence of B-27 Supplement (Gibco, #17504-044), 20 ng/ml of human recombinant EGF (Gibco, #PHG0311L) and human recombinant FGF (Peprotech, #AF-100-18B). The following day, the culture was collected, incubated with Accutase (Gibco, #A11105-01) at 37° C. and passed through a 26G×⅜ needle (BD Precision Glide, #305110) to obtain a single cell suspension and re-plated in the same supplemented medium. Cells were cultured at low (5-6) passages in serum-free sphere 3D culture with mitogens that preserve the clonogenic stemness phenotype. […] different primary GBM cells (GBM #46, GBM #50, and GBM #76) were tested for cell viability after treatment with the inhibitors. Cell viability was measured using MTT assay. Briefly, one thousand cells per well were seeded in 96-well plates and exposed to drug in a total of 200 uL media. After 72 hours, 50 uL of stock concentration of 2.5 mg/mL 3-(4,5-dimethylthiazol-2-yl)-2,5-diphenyltetrazolium bromide (MTT) (Sigma, #M2128) dissolved in PBS was added to wells and incubated at 37° C. for 4 hours; read in a […] plate reader at 570 nm and compared to DMSO and untreated cells. The IC50 (defined as the concentration at which 50% of the cells were viable) was determined from the curve.
Accordingly, compounds of the invention may be useful as therapeutic agents for the treatment of cancer.
To generate primary patient-derived GBM models for testing small molecule inhibitors, fresh primary tissues were received from patients undergoing surgical resection of WHO grade IV gliomas at Robert Wood Johnson University Hospital (RWJUH) under an approved RB protocol. De-identified primary human GBM samples were delivered to the laboratory. Cells were obtained through mechanical dissociation of the tumor tissue using a blade and plated in DMEM/F12 medium (Gibco) in the presence of B-27 Supplement (Gibco, #17504-044), 20 ng/ml of human recombinant EGF (Gibco, #PHG0311L) and human recombinant FGF (Peprotech, #AF-100-18B). […] Cell viability was measured using MTT assay. […] After 72 hours, 50 uL of stock concentration of 2.5 mg/mL 3-(4,5-dimethylthiazol-2-yl)-2,5-diphenyltetrazolium bromide (MTT) (Sigma, #M2128) dissolved in PBS was added to wells and incubated at 37° C. for 4 hours; read in a […] plate reader at 570 nm and compared to DMSO and untreated cells. […]

COc1ccc(Nc2nc(-c3nc4ncccn4c3C)cs2)cc1 [Example B1, N-(4-methoxyphenyl)-4-(3-methylimidazo[1,2-a]pyrimidin-2-yl)thiazol-2-amine]
EC50: 5 µM
